# Measurements: patent publication US20240216401A1, “COMBINATION THERAPY BY USING AKR1C3-ACTIVATED COMPOUND WITH IMMUNE CHECKPOINT INHIBITOR” (OBI Pharma, Inc., priority 2021, published 2024)
# “And” between values parts separate entries of the source, which are not always exact repeats. Equal entries are not always repeated. “Also recorded” adds a separate entry of the source.
# How the values were obtained:
# Assay type in all cases: in vivo, Mus musculus
# [1] = tested on: CD8^+ cytotoxic T cells (CTL) in tumor-infiltrating lymphocytes; experiment: Example 1: flow cytometry, percentage of CTL cells in TILs
# Protocol: (§1) Mice were sacrificed by CO2 euthanasia at the end of the study duration, and the connective tissue around tumor was resected. The tumor samples were then removed and weighed. The half tissue was fixed in 10% formaldehyde and then embedded in paraffin; the other half was prepared for the isolation of tumor-infiltrating lymphocytes (TILs).
# (§2) The half of mouse tumors were dissected into smaller fragments using scalpels and then digested with a cocktail of collagenase, DNase I, and Hyaluronidase (Collagenase #C5138, DNase I #D5025, Hyaluronidase #H6254, SigmaAldrich) for at least 2 hours.
# (§3) Cells were stained with the fluorescently conjugated surface antibodies and incubated for 30 minutes at 4° C., and then resuspended in staining buffer for flow cytometric analysis. Flow cytometry was done using a Navios EX Flow Cytometer (Beckman Coulter). Data were analyzed using the Kaluza Analysis Software (Beckman Coulter).
# [2] = tested on: NK cells in tumor-infiltrating lymphocytes; experiment: Example 1: flow cytometry, percentage of NK cells in TILs; conditions: individual mice
# Protocol: as §1, §2, §3
# [3] = tested on: CD4^+ T helper cells in tumor-infiltrating lymphocytes; experiment: Example 1: flow cytometry, percentage of TH cells in TILs; conditions: individual mice
# Protocol: as §1, §2, §3
# [4] = tested on: PD-L1^+ cells in tumor-infiltrating lymphocytes; experiment: Example 1: flow cytometry, percentage of PD-L1 cells in TILs; conditions: individual animal
# Protocol: as §1, §2, §3
# HepG2 tumor = experiment: Example 1: tumor volume, tumor weight and TGI in HepG2 tumor bearing humanized mice
# Protocol: (§4) Each group contains five mice. The human hepatocellular carcinoma cell line HepG2 were subcutaneously inoculated to the advanced immune deficiency mice. Total of 30 mice were included in this study.
# 2.2. […] The subcutaneous injection volume was […].
# (§5) 3.1. […] The injection was performed using insulin syringe with the dosage of 10 mg/kg (Dosage of injection was changed to 20 mg/kg from Day 15) and injection volume of 10 mL/kg. […] The reference item was administered for G1. The procedure followed the standards of sample administration.
# (§6) 3.2. The test item anti-hPD-L1 antibody or reference items were intraperitoneally injected to the mice on Day 8 after the inoculation of tumor cells. The injection was performed using insulin syringe with the dosage of 10 mg/kg (Dosage of injection was changed to 20 mg/kg from Day 15) and injection volume of 10 mL/kg. The test item anti-hPD-L1 was continuously administered on Day 8, 11, 15, 18, 22, 25, 29 and 32 for G4 and G6. The reference item was administered for G1. The procedure followed the standards of sample administration.
# (§7) 3.3. […] The injection was performed using insulin syringe with the dosage of 1 mg/kg and injection volume of 5 mL/kg. […] The reference item was administered for G1. The procedure followed the standards of sample administration.
# The measurement was performed from the next day of the inoculation. The tumor volumes were measured and recorded twice a week (Mon., Thur.). Tumor volume was calculated by ellipsoid equation according to the records ((major axis×minor axis×minor axis)×(π/6)).
# Tumor volumes were used to calculate tumor growth inhibition (TGI) rates according to the following formula: TGI (%)=[1−(Ti−T0)/(Ci−C0)]×100, where Ti and Ci indicate the mean tumor volume in the treatment groups and vehicle group at the end of the experiment (Day 35). Whereas, T0 and C0 indicate the mean tumor volumes in the treatment group and vehicle group at the beginning of the experiment (Day 1).
# as §1
# [5] = Example 1: body weight and mortality of HepG2 tumor bearing humanized mice; conditions: OBI-3424 1 mg/kg IV, antibody 10 mg/kg IP (20 from Day 15)
# Protocol: as §4, §5, §6, §7
# The measurement was performed from the next day of the inoculation. The animal body weights were measured and recorded twice per week.
# [6] = TILs, flow cytometer, individual mice
# [7] = TILs, gate CD45^+CD8^+ cells, individual mice
structure (smiles),measurement,setting,value
"C[C@H](OP(=O)(N1CC1)N1CC1)c1ccc([N+](=O)[O-])c(Oc2cccc(C(=O)N(C)C)c2)c1 [OBI-3424, (S)-1-(3-(3-N,N-dimethylaminocarbonyl)phenoxyl-4-mtrophenyl)-1-ethyl-N,N′-bis(ethylene)phosphoramidate]",CD8^+ cytotoxic T cells (CTL) population in tumors compared with vehicle (in words),"[1]; Example 1, TILs at sacrifice, flow cytometry",significantly elevated
same,CD25^+ CTL cells (CD45^+CD8^+ CD25^+) Total %,[1]; [6],0.27% and 0.30% and 0.77% and 0.52% and 0.28%
same,CTL cells (CD45^+CD8^+) Total %,[1]; [6],20.93% and 12.12% and 21.14% and 45.53% and 36.08%
same,PD-1^+ CTL cells (CD45^+CD8^+ PD-1^+) Total %,[1]; [6],21.41% and 12.30% and 20.63% and 41.26% and 28.90%
same,CTL cells (CD45^+CD8^+) CD45^+ Gated %,"[1]; TILs, gate CD45^+ cells, individual mice",49.08% and 66.81% and 72.14% and 74.09% and 57.70%
same,CD25^+ CTL cells (CD45^+CD8^+ CD25^+) CTL Gated %,[1]; [7],1.27% and 2.48% and 3.64% and 1.13% and 0.78%
same,PD-1^+ CTL cells (CD45^+CD8^+ PD-1^+) CTL Gated %,[1]; [7],92.13% and 91.25% and 99.25% and 91.79% and 85.06%
same,CD25^+ CTL cells (CD45^+CD8^+ CD25^+) Cell count,"[1]; TILs, individual mice",0.12 ×10^5 and 0.22 ×10^5 and 0.63 ×10^5 and 0.13 ×10^5 and 0.11 ×10^5
same,CTL cells (CD45^+CD8^+) Cell count,"[1]; TILs, individual mice",9.13 ×10^5 and 8.93 ×10^5 and 17.29 ×10^5 and 11.11 ×10^5 and 14.65 ×10^5
same,PD-1^+ CTL cells (CD45^+CD8^+ PD-1^+) Cell count,"[1]; TILs, individual mice",9.33 ×10^5 and 9.07 ×10^5 and 16.88 ×10^5 and 10.07 ×10^5 and 11.73 ×10^5
same,CD16^+ NK cells (CD45^+CD56^+ CD16^+) Total %,[2]; flow cytometer,0.39% and 0.21% (2×) and 0.24% and 0.17%
same,NK cells (CD45^+CD56^+) Total %,[2]; flow cytometer,2.47% and 1.62% and 1.15% and 2.73% and 1.39%
same,PD-1^+ NK cells (CD45^+CD56^+PD-1^+) Total %,[2]; flow cytometer,3.26% and 1.51% and 1.63% and 2.76% and 2.38%
same,NK cells (CD45^+CD56^+) CD45^+ Gated %,[2]; gate CD45^+ cells,6.06% and 9.96% and 4.16% and 5.20% and 2.33%
same,CD16^+ NK cells (CD45^+CD56^+ CD16^+) NK Gated %,[2]; gate CD45^+CD56^+ cells,15.62% and 12.65% and 20.43% and 7.71% and 11.87%
same,PD-1^+ NK cells (CD45^+CD56^+PD-1^+) NK Gated %,[2]; gate CD45^+CD56^+ cells,88.81% and 88.82% and 97.60% and 90.05% and 83.33%
same,CD16^+ NK cells (CD45^+CD56^+ CD16^+) Cell count,[2],0.17 ×10^5 and 0.15 ×10^5 and 0.20 ×10^5 and 0.05 ×10^5 and 0.07 ×10^5
same,NK cells (CD45^+CD56^+) Cell count,[2],1.08 ×10^5 and 1.19 ×10^5 and 0.94 ×10^5 and 0.67 ×10^5 and 0.56 ×10^5
same,PD-1^+ NK cells (CD45^+CD56^+PD-1^+) Cell count,[2],1.42 ×10^5 and 1.11 ×10^5 and 1.33 ×10^5 and 0.67 ×10^5 and 0.97 ×10^5
same,CD25^+ TH cells (CD45^+CD4^+ CD25^+) Total %,[3]; flow cytometer,1.06% and 0.68% and 0.82% and 0.52% and 0.53%
same,PD-1^+ TH cells (CD45^+CD4^+ PD-1^+) Total %,[3]; flow cytometer,19.45% and 9.29% and 13.77% and 15.00% and 16.75%
same,TH cells (CD45^+CD4^+) Total %,[3]; flow cytometer,18.53% and 9.14% and 14.30% and 14.34% and 16.81%
same,TH cells (CD45^+CD4^+) CD45^+ Gated %,[3]; gate CD45^+ cells,43.45% and 50.36% and 48.78% and 23.33% and 26.88%
same,CD25^+ TH cells (CD45^+CD4^+CD25^+) TH Gated %,[3]; gate CD45^+CD4^+ cells,5.70% and 7.39% and 5.74% and 3.63% and 3.15%
same,PD-1^+ TH cells (CD45^+CD4^+ PD-1^+) TH Gated %,[3]; gate CD45^+CD4^+ cells,99.46% and 98.15% and 99.75% and 97.06% and 97.78%
same,CD25^+ TH cells (CD45^+CD4^+ CD25^+) Cell count,[3],0.46 ×10^5 and 0.50 ×10^5 and 0.67 ×10^5 and 0.13 ×10^5 and 0.22 ×10^5
same,PD-1^+ TH cells (CD45^+CD4^+ PD-1^+) Cell count,[3],8.48 ×10^5 and 6.85 ×10^5 and 11.26 ×10^5 and 3.66 ×10^5 and 6.80 ×10^5
same,TH cells (CD45^+CD4^+) Cell count,[3],8.08 ×10^5 and 6.74 ×10^5 and 11.70 ×10^5 and 3.50 ×10^5 and 6.82 ×10^5
same,CD45^+ cells Cell count (×10^6),[4],1.86 ×10^6 and 1.34 ×10^6 and 2.40 ×10^6 and 1.50 ×10^6 and 2.54 ×10^6
same,CD45^+ cells Gated %,[4],58.88% and 28.16% and 40.69% and 79.75% and 79.11%
same,CD45^+ cells Total %,[4],42.64% and 18.14% and 29.31% and 61.46% and 62.53%
same,Total PD-L1^+ cells (PD-L1^+) Cell count (×10^5),[4],2.17 ×10^5 and 14.22 ×10^5 and 4.16 ×10^5 and 0.26 ×10^5 and 0.25 ×10^5
same,"Total PD-L1^+ cells (PD-L1^+), Total %",[4],4.97% and 19.30% and 5.09% and 1.08% and 0.62%
same,"Total PD-L1^+ cells (PD-L1^+), Total cells Gated %",[4],5.67% and 24.15% and 6.02% and 1.15% and 0.65%
same,Total cells Cell count (×10^6),[4],3.82 ×10^6 and 5.89 ×10^6 and 6.92 ×10^6 and 2.30 ×10^6 and 3.83 ×10^6
same,Total cells Gated %,[4],87.63% and 79.89% and 84.57% and 94.06% and 94.44%
same,Total cells Total %,[4],87.63% and 79.89% and 84.57% and 94.06% and 94.44%
same,"Tumor volume, Mean","HepG2 tumor; D 1, group mean, OBI-3424 1 mg/kg IV, antibody 10 mg/kg IP (20 from Day 15)",397.08 mm^3
same,"Tumor volume, Mean","HepG2 tumor; D 4, group mean, OBI-3424 1 mg/kg IV, antibody 10 mg/kg IP (20 from Day 15)",295.20 mm^3
same,"Tumor volume, Mean","HepG2 tumor; D 7, group mean, OBI-3424 1 mg/kg IV, antibody 10 mg/kg IP (20 from Day 15)",298.28 mm^3
same,"Tumor volume, Mean","HepG2 tumor; D 11, group mean, OBI-3424 1 mg/kg IV, antibody 10 mg/kg IP (20 from Day 15)",344.17 mm^3
same,"Tumor volume, Mean","HepG2 tumor; D 14, group mean, OBI-3424 1 mg/kg IV, antibody 10 mg/kg IP (20 from Day 15)",385.09 mm^3
same,"Tumor volume, Mean","HepG2 tumor; D 18, group mean, OBI-3424 1 mg/kg IV, antibody 10 mg/kg IP (20 from Day 15)",535.36 mm^3
same,"Tumor volume, Mean","HepG2 tumor; D 21, group mean, OBI-3424 1 mg/kg IV, antibody 10 mg/kg IP (20 from Day 15)",627.45 mm^3
same,"Tumor volume, Mean","HepG2 tumor; D 25, group mean, OBI-3424 1 mg/kg IV, antibody 10 mg/kg IP (20 from Day 15)",773.19 mm^3
same,"Tumor volume, Mean","HepG2 tumor; D 28, group mean, OBI-3424 1 mg/kg IV, antibody 10 mg/kg IP (20 from Day 15)",718.91 mm^3
same,"Tumor volume, Mean","HepG2 tumor; D 32, group mean, OBI-3424 1 mg/kg IV, antibody 10 mg/kg IP (20 from Day 15)",643.09 mm^3
same,"Tumor volume, Mean","HepG2 tumor; D 35, group mean (mean±SEM), OBI-3424 1 mg/kg IV, antibody 10 mg/kg IP (20 from Day 15)",590.62±164.32 mm^3 and 590.62 mm^3
same,"Tumor weight, Mean","HepG2 tumor; D 35, group mean, OBI-3424 1 mg/kg IV, antibody 10 mg/kg IP (20 from Day 15)",274.44 mg
same,mean tumor volume compared with vehicle (in words),"HepG2 tumor; Day 35, vs vehicle (G1), Student's t-test",Significantly reduced; also recorded: significantly suppressed
same,effect on tumor growth (conclusion in words),HepG2 tumor; HepG2 humanized mouse model,efficiently anti-tumor effect
same,TGI,"HepG2 tumor; from mean tumor volumes Day 35 vs Day 1, relative to vehicle, OBI-3424 1 mg/kg IV, antibody 10 mg/kg IP (20 from Day 15)",83.13%
same,tumor weight compared with vehicle (in words),"HepG2 tumor; sacrifice Day 36, vs vehicle (G1)",significantly suppressed
same,"Body Weight, Mean","[5]; Day 18, group mean",24.23 g
same,"Body Weight, Mean","[5]; Day 21, group mean",24.04 g
